Paper PMC7283364 (ACS infectious diseases, 2019)
pEC50, pIC50: −log10 of the molar value. Several values for one entry are separate records, joined by “and”; a condition that tells them apart may be missing. Identical values can stand only once. Like-named read-outs stand apart in the source and are kept apart here. Where a SMILES comes first, the peptide text is derived from it. The star is where a group is joined. Cbz = O=C(OCc1ccccc1)*

Columns and labels:
adult S. mansoni [1] = assay: WormAssay quantitative motility assay of adult worms in culture; type: cell-based, Schistosoma mansoni; details: 1 μM, mixed-sex adults
adult S. mansoni [2] = assay: Microscopic observation of phenotypic changes of adult worms in culture; type: cell-based, Schistosoma mansoni; details: 1 μM; for phenotype viewed under the microscope: 72 h; for phenotypic changes: 24 h
[3] = system: caspase activity in adult S. mansoni; assay: Caspase activity; type: cell-based, Schistosoma mansoni; details: 1 μM, 24 h, Ac-DEVD-AFC
[4] = system: S. mansoni proteasome β5 subunit; assay: Inhibition of proteasome activity; type: biochemical, Schistosoma mansoni; details: 1 μM inhibitor added to lysate, Suc-LLVY-AMC, E-64 present
[5] = system: S. mansoni proteasome β5 subunit; assay: Proteasome inhibition in living worms exposed to inhibitors; type: cell-based, Schistosoma mansoni; details: worms exposed to 1 μM for 24 h, washed, extracts assayed with Suc-LLVY-AMC
[6] = system: Schistosoma mansoni infectious larvae (cercariae); details: cercariae pre-treated with 50 μM; cited from earlier work
Sm20S β5 subunit = Sm20S β5 subunit (Schistosoma mansoni, UniProt A0A5K4F079); assay: Sm20S β5 inhibition assay; type: biochemical
[7] = target: human immunoproteasome (i20S) β2 subunit (Homo sapiens, UniProt P40306); assay: i20S β2 inhibition assay; type: biochemical
[8] = target: human immunoproteasome (i20S) β5 subunit (Homo sapiens, UniProt P28062); assay: i20S β5 inhibition assay; type: biochemical; details: for fold less potent towards i20S β5: compared with c20S and Sm20S β5
HepG2 cells [9] = system: HepG2 cells
HepG2 cells [10] = details: cited from earlier work
Sm20S β2 subunit [11] = assay: Sm20S β2 inhibition assay; type: biochemical
Sm20S β1 subunit = Sm20S β1 subunit (Schistosoma mansoni, UniProt G4V926); assay: Sm20S β1 inhibition assay; type: biochemical; details: for pIC50: read-out: IC50 Sm20S β1, z-LLE-AMC
Sm20S β2 subunit [12] = target: Sm20S β2 subunit (Schistosoma mansoni, UniProt G4VSW3); assay: Sm20S β2 inhibition assay; type: biochemical; details: for pIC50: read-out: IC50 Sm20S β2, z-LRR-AMC
[13] = target: human immunoproteasome (i20S) β1 subunit (Homo sapiens, UniProt P28065); assay: i20S β1 inhibition assay; type: biochemical; details: read-out: IC50 i20S β1

Compound	decrease in worm motility (adult S. mansoni [1]; 24 h)	phenotype viewed under the microscope (adult S. mansoni [2])	increase in caspase activity compared to the DMSO control [3]	reduction of proteolytic activity in worm lysate [4]	decrease in endogenous proteasome (β5) activity in living worms [5]	fold less potent towards i20S β5 [8]	decrease in worm motility (adult S. mansoni [1]; 6 h)	phenotypic changes (adult S. mansoni [2])	pIC50 (Sm20S β1 subunit)	pIC50 (Sm20S β2 subunit [12])	other results
CC(C)C[C@@H](C=O)NC(=O)[C@H](CC(C)C)NC(=O)[C@H](CC(C)C)NC(=O)OCc1ccccc1 [MG132] (Cbz-Leu-Leu-Leu-aldehyde)	did not alter motility	appeared normal in shape, movement and color	not significantly different from the DMSO control	92%	no effect on proteasome activity						reduction in parasite establishment compared to control-treated mice [6]: 96%
CCCCCC(=O)N[C@H](C(=O)N[C@@H](CCCC)C(=O)N[C@@H](CC(C)C)C(=O)[C@@]1(C)CO1)C(C)C [analog 1]						at least 5 fold					difference in potency between c20S and Sm20S (Sm20S β5 subunit; all subunits): no difference in potency; fold less potent towards i20S β2 ([7]; compared with c20S and Sm20S β2): at least 5 fold; fold less cytotoxic to HepG2 cells than carmaphycin B (HepG2 cells [9]): 11 fold; pEC50 (HepG2 cells [10]): 6.87
CCCCCC(=O)N[C@@H](Cc1ccccc1)C(=O)N[C@@H](CCCC)C(=O)N[C@@H](Cc1ccccc1)C(=O)[C@@]1(C)CO1 [analog 7]						at least 5 fold					fold more potent for Sm20S β2 relative to c20S (Sm20S β2 subunit [11]): 3.3 fold
CC(C)C[C@H](NC(=O)[C@H](Cc1ccccc1)NC(=O)c1cnccn1)B(O)O [bortezomib]		relatively motionless, unable to extend or flex their bodies and darkened, and had detached from the surface of the well	7 fold	99%			45%	same deleterious phenotypic changes previously noted for bortezomib	7.82	6.57	pIC50 (Sm20S β5 subunit): 8.05; potency for Sm20S β1 compared with β5 (Sm20S β5 subunit): equal potency
CC(C)C[C@H](NC(=O)[C@H](CCc1ccccc1)NC(=O)CN1CCOCC1)C(=O)N[C@@H](Cc1ccccc1)C(=O)N[C@@H](CC(C)C)C(=O)[C@@]1(C)CO1 [carfilzomib]		phenotypic changes were similar to those observed for bortezomib	4.5 fold	100%	84% and > 75%		47%		< 6.30	7.32	fold less potent against Sm20S β1 compared to bortezomib (Sm20S β1 subunit): more than 33 fold; fold more potent against Sm20S β2 compared to bortezomib (Sm20S β2 subunit [12]): 5.6 fold; fold more potent against Sm20S β5 compared to bortezomib (Sm20S β5 subunit): 18 fold; selectivity for Sm20S β5 subunit over β1 (Sm20S β5 subunit): ~1000 fold; selectivity for Sm20S β5 subunit over β2 (Sm20S β5 subunit): approximately 100 fold
CCCCCC(=O)N[C@H](C(=O)N[C@@H](CCS(C)(=O)=O)C(=O)N[C@@H](CC(C)C)C(=O)[C@@]1(C)CO1)C(C)C [carmaphycin B]	at least 80%				at least 80%			same deleterious phenotypic changes previously noted for bortezomib	< 6.30	9.22	pIC50 (Sm20S β5 subunit; read-out: IC50 Sm20S β5, Suc-LLVY-AMC): 8.01; pIC50 [13]: < 6.30; pIC50 ([7]; read-out: IC50 i20S β2): 7.21; pIC50 ([8]; read-out: IC50 i20S β5): > 8.30
